According to patent US20100143972A1, “Method of Making Cyclic Polypeptides with Inteins” (priority 2006, published 2010):
Entries after “also recorded” stand apart in the source; their conditions may differ. No end group written: not given here.

Experiments:
[1] = tested on: S. aureus Agr-II (AH430) reporter strain; experiment: AIP activation assay, Agr-II reporter; format: cell-based; conditions: 50 nM iAIP, TSB with 0.2% glucose, AH430, GFP
Description: (§1) AIP activation assays. Overnight cultures of S. aureus reporter strains were grown in TSB and sub-cultured 1:50 into TSB+0.2% glucose supplemented with indicated AIP (final volume […] concentration 50 nM). Cultures were grown in test tubes (13×100 mm) at 37° C. shaking at 250 rpm. Cell density and fluorescence was monitored using a Tecan GENios microtiter plate reader at 4, 6, 8, and 10 hours after inoculation.
(§2) In published reports, the addition of AIP samples results in a significant increase in the RNAIII levels (Ji et al., 1997). The inventors reasoned that the S. aureus media conditions are limiting the Agr response, allowing detection of AIP activation. Glucose is a common media component, and growth on glucose is known to repress RNAIII transcription (Regassa et al., 1992). When the reporter strains were grown in TSB with 0.2% glucose, the inventors observed an approximately 70% drop in GFP expression (data not shown). The addition of AIP to the glucose treated strains restores the maximal levels of RNAIII, creating a simple test for AIP activation.

[2] = tested on: Strain AH429 (Agr-I reporter); experiment: AIP inhibition assay, Agr-I reporter (RNAIII promoter driving GFP); format: cell-based, S. aureus; conditions: sample diluted 20-fold into AH429 culture; GFP compared to TSB control
Description: (§3) AIP inhibition assays. For monitoring inhibition of the Agr system, an overnight culture of the appropriate reporter strain was inoculated into TSB with chloramphenicol and grown to an optical density of 0.05 (0.25 for AH431) at 600 nm. In triplicate, 475 μl of reporter culture was aliquoted into test tubes (13×100 mm) and 25 μl of spent media or intein-generated AIP was added to each tube. As controls, separate tubes were prepared with the addition of either 25 μl of TSB or chitin elution buffer. The tubes were shaken at 250 rpm at 37° C. and assayed at the following times unless otherwise indicated: AH429, 12 hrs; AH430, 3 hrs; AH431, 4 hrs. Both cell density (optical density, 595 nm) and GFP fluorescence (excitation at 485 nm, emission at 535 nm) was measured in a Tecan GENios microtiter plate reader (Research Triangle Park, N.C.) by removing 100 μl from each tube and assaying in a microtiter plate (Corning 3606 plates). Fluorescence is reported as an average of the three samples. Control AIP samples were prepared from the appropriate S. aureus producing strains. Each strain was grown in TSB until an optical density at 600 nm of ˜2.0-2.5, the cells were pelleted, and the supernatant was filtered through a 0.2 micro syringe filter. The filtered supernatants were stored at 4° C. and used within 48 hrs.
(§4) Agr reporter strains. […]

[3] = tested on: Strain AH431 (Agr-III reporter); experiment: AIP inhibition assay, Agr-III reporter (RNAIII promoter driving GFP); format: cell-based, S. aureus; conditions: sample diluted 20-fold into AH431 culture
Description: as §3, §4

[4] = tested on: AH430 (Agr-II reporter); format: cell-based, S. aureus
Description: as §3
The intein fusions were kept on resin in the presence of buffer with TCEP, a non-thiol reducing agent, added to maintain DnaB activity and keep the AIP cysteine reduced. Following incubation, the resin buffer was eluted and tested for biological activity. The bioassay is based on the observation that there are three inhibition classes among S. aureus Agr systems (FIG. 1). An S. aureus Agr-II reporter strain, AH430, has a plasmid with the RNAIII transcript promoter driving GFP expression.
Agr reporter strains. To test the iAIPs, reporter strains had to be developed for each of the Agr-I, Agr-II, and Agr-III systems. […]

[5] = tested on: S. aureus Agr-I (AH462) reporter strain; experiment: AIP activation assay, Agr-I reporter; format: cell-based; conditions: 50 nM iAIP, TSB with 0.2% glucose, AH462, GFP
Description: as §1, §2

Substance | -fold activation over the TSB control, Agr-II reporter [1] | inhibition of quorum-sensing (GFP fluorescence) in Agr-I reporter strain [2] | inhibition of quorum-sensing (GFP fluorescence) in Agr-III reporter strain [3] | inhibition of quorum-sensing (GFP fluorescence) in Agr-II reporter strain ([4]; sample diluted 20-fold into AH430 culture, untreated sample) | Agr-II inhibition after hydroxylamine treatment of the sample ([4]; sample treated with hydroxylamine, opening the thiolactone ring, AH430) | Agr-II inhibition after base treatment of the sample ([4]; sample treated with sodium hydroxide base to open the thiolactone ring, neutralized with acid, AH430) | -fold activation over the TSB control, Agr-I reporter [5]
iAIP-II: intein-generated S. aureus AIP-II thiolactone peptide (GVNACSSLF), N-terminal methionine completely removed (not fully specified (bridges); also: thiolactone, places not given here) | 3.8 -fold | inhibited quorum-sensing | inhibited quorum-sensing | – | – | – | –
iAIP-I: intein-generated S. aureus AIP-I thiolactone peptide with an additional N-terminal methionine (MYSTCDFIM) (not fully specified (bridges); also: thiolactone, places not given here) | – | did not inhibit quorum-sensing | inhibited | inhibited the quorum-sensing response in strain AH430 in a dose-dependent manner; also recorded: did inhibit activity | neither sample inhibited the Agr response | neither sample inhibited the Agr response | 3.0 -fold
